# Measurements published in patent publication US20120184590A1, “FORMULATIONS OF INDOLE-3-CARBINOL DERIVED ANTITUMOR AGENTS WITH INCREASED ORAL BIOAVAILABILITY” (UNIVERSITY OF KANSAS, priority 2009, published 2012).
# Key:
# [1] = Time for syringe dosage forms to dissolve in warm water; type: physicochemical; settings: shaken in warm water (approximately 40° C.)
# Procedure: A similar set of sample tubes was prepared for a monkey study. Twenty-eight tubes with 11.2±0.1 g of 5 mg/g SR13668 in Solutol were prepared providing a dose of 56 mg SR13668 per tube. A set of 3-mL disposable plastic syringes were prepared containing a 5 mg dose of SR13668 in either Solutol, Vit E TPGS or 1:1 Solutol:Vit E TPGS. The syringes were prepared so the dosage form could be pushed out and dissolved in warm water to administer to monkeys by gavage. The syringes were prepared by (a) cutting off the tip-end at the 0.1 mL mark of a plastic, disposable 3-mL syringe, (b) pulling back the plunger, (c) filling the syringe by weight with the liquid melt at 65° C. to give the correct dosage and (d) allowing the formulation to harden. Each formulation contained between 3.5-4.2 mg SR13668/g matrix and approximately 1.2 g of the formulation was needed in each syringe to give a 5 mg dose. The syringes were fairly easy to make and to expel the dosage form into warm water. The doses where shaken in warm water (approximately 40° C.) and took the following amounts of time to dissolve: <1 min. for Solutol, 15 min for 1:1 Solutol:Vit E TPGS, and 37 min for Vit E TPGS.
# [2] = Oral bioavailability of PEG400:Labrasol formulation in dogs (earlier finding); settings: dog, in vivo
compound,measurement,setting,value
"CCOC(=O)c1ccc2[nH]c3c(OC)c4[nH]c5ccc(C(=O)OCC)cc5c4cc3c2c1 [SR13668, 2,10-dicarbethoxy-6-methoxy-5,7-dihydro-indolo-(2,3-b)carbazole]",time to dissolve,[1]; 5 mg dose of SR13668 in 1:1 Solutol:Vit E TPGS,15 min
same,time to dissolve,[1]; 5 mg dose of SR13668 in Solutol,< 1 min
same,time to dissolve,[1]; 5 mg dose of SR13668 in Vit E TPGS,37 min
same,bioavailability,[2],< 1%
